The target of series [1] is human 5-HT2A (h5-HT2A) receptor (Homo sapiens (Human), UniProt P28223). The series is described as follows: FLIPR calcium assay, human 5-HT2A receptor, agonist mode. In kind it is cell-based. The procedure:
I. Assessment of the Activated Effect of Exemplary Compounds of Formula I Targeting on Human 5-HT2A (h5-HT2A) Receptor Under Agonist Mode:
1. Culture the cells in cell culture medium (DMEM containing 10% FBS, 1× penicillin-streptomycin 300 μg/ml G418 and 100 μg/ml hygromycin B) at 37° C., 5% (v/v) CO2.
2. One day before the assays, detach the cell using TrypLE™ Express and count cells using cell counter.
3. Seed 20000 cells/well in 30 μl/well culture medium to a 384-well cell plate and incubate the cells overnight at 37° C., 5% (v/v) CO2.
4. On the assay day, prepare 2×dye solution following the manual of the FLIPR® Calcium 6 Assay Kit: i. Dilute the dye with assay buffer(20 mM HEPES in 1× HBSS, PH7.4); ii. Add probenecid to the final concentration of 5 mM; iii. Vortex vigorously for 1-2 minutes.
5. Medium from cell plate by flicking the cell plate on towel papers.
6. Add 10 μl of assay buffer and 10 μl of 2×dye solution to each well of the cell plate.
7. Put the cell plate on plate shaker, agitate the plate at 600 rpm for 2 minutes. Incubate the plate at 37° C. for 2 hours followed by additional 15-minute incubation at 25° C.
8. Prepare 3×compound in assay buffer: a. Dilute reference compounds to required concentration with DMSO. Add the compounds to a 384-well compound plate; b. Perform serial dilutions; c. Add 10 mM test compounds to the compound plate, perform 3-fold serial dilutions. d. […] Add 20 μl/well assay buffer to the compound plate; f. Mix the plate on plate shaker for 2 mins;
i. The normalized fluorescence reading (RFU) is calculated as shown follow, while Fmax and Fmin stand for maximum and minimum of calcium signal during defined time window: RFU=Fmax−Fmin
ii. Calculate the percentage activation by using following equation: […]
iii. Calculate EC50 by fitting % activation against log of compound concentrations with Hill equation using XLfit.

Series [2] can be described thus: Human liver microsomes stability with NADPH. As to conditions: for Remaining Percentage (%) after 60 min, Human: human liver microsomes, with NADPH, 2 μM; for half-life at 2 μM / microsomal CLint at 2 μM: human, microsomes. The procedure:
(§1) The objective of this study was to estimate in vitro metabolic stability of exemplary compounds in pooled human, male rat and male mouse liver microsomes. The concentrations of exemplary compounds in reaction systems were evaluated by LC-MS/MS for estimating the stability in pooled human, male rat and male mouse liver microsomes. The in vitro intrinsic clearances of test compounds were determined as well.
(§2) A master solution in the “Incubation Plate” containing phosphate buffer, ultra-pure H2O, MgCl2 solution and liver microsomes was made according to Table 3. The mixture was pre-warmed at 37° C. water bath for 5 minutes.
(§3) 40 μL of 10 mM NADPH solution was added to each well. The final concentration of NADPH was 1 mM. The negative control samples were prepared by replacing NADPH with 40 μL of ultra-pure H2O. Samples were prepared in duplicate. Negative controls were prepared in singlet.
(§4) The reaction was started with the addition of 4 μL of 200 μM exemplary test compounds or control compounds to each master solution to get the final concentration of 2 μM. This study was performed in duplicate.
(§5) Aliquots of 50 μL were taken from the reaction solution at 0, 15, 30, 45 and 60 minutes. The reaction solutions were stopped by the addition of 4 volumes of cold methanol with IS (100 nM alprazolam, 200 nM imipramine, 200 nM labetalol and 2 μM ketoprofen). Samples were centrifuged at 3,220 g for 40 minutes. Aliquot of 90 μL of the supernatant was mixed with 90 μL of ultra-pure H2O and then was used for LC-MS/MS analysis.
(§6) LC/MS analysis was performed for all samples from this study using a Shimadzu liquid chromatograph separation system equipped with degasser DGU-20A5R; solvent delivery unit LC-30AD; system controller SIL-30AC; column oven CTO-30A; CTC Analytics HTC PAL System. Mass spectrometric analysis was performed using an Triple Quad™ 5500 instrument.
(§7) All calculations were carried out using Microsoft Excel. Peak areas were determined from extracted ion chromatograms. The slope value, k, was determined by linear regression of the natural logarithm of the remaining percentage of the parent drug vs. incubation time curve.
(§8) Conversion of the in vitro t1/2 (min) into the in vitro intrinsic clearance (in vitro CLint, in μL/min/mg proteins) was done using the following equation (mean of duplicate determinations): […]

The nature of series [3]: Mouse liver microsomes stability with NADPH. As to conditions: for half-life at 2 μM / microsomal CLint at 2 μM: male, mouse, microsomes; for Remaining Percentage (%) after 60 min, Mouse: mouse liver microsomes, with NADPH, 2 μM. As for the experimental part:
as §1, §2, §3, §4, §5, §6, §7, §8
On the technique in general: Liver microsomes are a subcellular fraction often used to study metabolism.

Series [4] is described as follows: In vivo pharmacokinetics in male SD rats (IV and PO). As to conditions: rat; for AUC(0-inf) / C0 / clearance / AUC(0-t) / half-life / MRT inf / Vd / Cmax / Tmax / bioavailability: male, SD, plasma; for AUC(0-t): read-out: AUC0-tlast; for half-life: read-out: Apparent t1/2 (converted); for MRT inf: read-out: MRT0-inf; for Vd: read-out: Vss; for bioavailability: read-out: F (bioavailability). As for the experimental part: Example 26: In Vivo Assessment of the Pharmacokinetics in Mice and Rats Formulations were administered intravenously (i.v.) via the tail vein or orally (p.o.) by gavage with disposable feeding needles. i. Analysis software: Phoenix® WinNonlin® 8.2 (Pharsight, Certara, Mountainview, Calif.) ii. Analysis methods: non-compartmental analysis, linear up/log down trapezoidal rule iii. PK parameters: C0, t1/2, AUC0-tlast. AUC0-∞, CL, Vss, MRT, tmax(po), Cmax(po), F, as appropriate • C0 concentration extrapolated to time zero following an i.v. dose • tmax time at which maximum concentration is observed • Cmax maximum observed concentration • Apparent t1/2 apparent terminal half-life • AUC0-tlast area under the concentration vs time curve from time 0 to the time of the last measurable concentration • AUC0-inf area under the concentration vs time curve from time 0 to infinity • CL systemic clearance • MRT0-inf mean residence time from time zero to infinity • Vss steady-state volume of distribution • F bioavailability=(Dose^iv*AUC^po)/(Dose^po*AUC^iv)*100

In general, EC50 refers to the concentration at which the effect is half-maximal. Usually microsomal CLint stands for the capacity of the preparation to metabolise the compound, expressed as a volume cleared per time. High values mean rapid turnover, low ones slow turnover. One may read the AUC(0-inf) as the area under the concentration-time curve extrapolated to infinity. Broadly, the Cmax is the maximum level reached in the sampled fluid or tissue. The term Tmax denotes the time from dosing to the highest level.

SMILES strings stand for the structures. Like-named read-outs stand apart in the source and are kept apart here.

With `[2H]C([2H])([2H])N1CCC[C@@H]1Cc1c[nH]c2cccc(O)c12` [Compound I-2, (R)-3-((1-(methyl-d3)pyrrolidin-2-yl)methyl)-1H-indol-4-ol], the EC50 in series [1] was < 1000 nM. Also, in series [2], the “Remaining Percentage (%) after 60 min, Human” value was 82.10%; the half-life at 2 μM was found to be 3.51 h; the microsomal CLint at 2 μM came out at 6.57 µL/min/mg. In addition, in series [3], the half-life at 2 μM came out at 1.43 h; the microsomal CLint at 2 μM was 16.2 µL/min/mg; the “Remaining Percentage (%) after 60 min, Mouse” value turned out to be 61.51%. Further, in series [4] (IV, 0.3 mg/kg), the AUC(0-inf) turned out to be 28.7 ± 3.82 ng·h/mL, the C0 amounted to 77.4 ± 7.22 ng/mL, the clearance is 177 mL/min/kg and the AUC(0-t) turned out to be 27.6 ± 3.27 ng·h/mL. In series [4] (IV, 0.3 mg/kg), the half-life is 0.593 ± 0.262 h, the MRT inf amounted to 0.609 ± 0.0984 h, the Vd is 6.45 ± 1.4 L/kg and the AUC0-inf/Dose was determined as 95.6 ± 12.7 kg·ng·h/mL/mg. Also, in series [4] (PO, 3 mg/kg), the AUC(0-inf) stood at 419 ± 56.1 ng·h/mL, the Cmax was 201 ± 50.9 ng/mL, the Tmax is 0.333 ± 0.144 h and the AUC(0-t) stood at 409 ± 46.1 ng·h/mL. For the same compound, in series [4] (PO, 3 mg/kg), the half-life is 2.69 ± 1.95 h, the bioavailability is 146 ± 19.5%, the MRT inf was 2.29 ± 0.567 h and the AUC0-inf/Dose is 140 ± 18.7 kg·ng·h/mL/mg. The compound also yielded a Cmax/Dose in series [4] (PO, 3 mg/kg) of 66.9 ± 17.0 kg·ng/mL/mg.
For the compound `[2H]C([2H])(c1c[nH]c2cccc(OC)c12)[C@H]1CCCN1C([2H])([2H])[2H]` [Compound I-39, (R)-4-methoxy-3-((1-(methyl-d3)pyrrolidin-2-yl)methyl-d2)-1H-indole], the EC50 in series [1] is < 1000 nM. In series [2], the “Remaining Percentage (%) after 60 min, Human” value is on record as 73.65%; the half-life at 2 μM is 2.27 h; the intrinsic clearance (microsomal CLint) at 2 μM came to 10.2 µL/min/mg. In series [3], the half-life at 2 μM stood at 1.6 h; the microsomal CLint at 2 μM came to 14.4 µL/min/mg; the “Remaining Percentage (%) after 60 min, Mouse” value is on record as 64.91%. Besides, in series [4] (IV, 0.3 mg/kg), the AUC(0-inf) came to 26.5 ± 3.62 ng·h/mL, the C0 came to 50.8 ± 4.63 ng/mL, the clearance is 192 mL/min/kg and the AUC(0-t) was found to be 25.9 ± 3.49 ng·h/mL. Moreover, in series [4] (IV, 0.3 mg/kg), the half-life is 0.766 ± 0.0369 h, the MRT inf was found to be 0.882 ± 0.0298 h, the Vd was 10.1 ± 1.01 L/kg and the AUC0-inf/Dose worked out at 88.3 ± 12.1 kg·ng·h/mL/mg. Moreover, in series [4] (PO, 3 mg/kg), the total exposure AUC(0-inf) stood at 36.5 ng·h/mL, the peak concentration (Cmax) came to 14.8 ± 3.61 ng/mL, the time to peak (Tmax) was found to be 3.33 ± 2.31 h and the AUC(0-t) was found to be 1.48 ng·h/mL. In series [4] (PO, 3 mg/kg), the half-life is 1.48 ± 0.813 h, the bioavailability was found to be 19.6 ± 10.3%, the MRT inf worked out at 3.18 h and the AUC0-inf/Dose amounted to 17.3 ± 9.09 kg·ng·h/mL/mg. For the same compound, the Cmax/Dose in series [4] (PO, 3 mg/kg) turned out to be 4.92 ± 1.20 kg·ng/mL/mg.
Take `[2H]C([2H])(c1c[nH]c2cccc(O)c12)[C@H]1CCCN1C([2H])([2H])[2H]` [Compound I-44, (R)-3-((1-(methyl-d3)pyrrolidin-2-yl)methyl-d2)-1H-indol-4-ol]: in series [1], the EC50 was < 1000 nM. In addition, in series [2], the “Remaining Percentage (%) after 60 min, Human” value was 78.13%; the half-life at 2 μM is 2.81 h; the microsomal CLint at 2 μM worked out at 8.23 µL/min/mg. Also, in series [3], the half-life at 2 μM came out at 1.18 h; the microsomal CLint at 2 μM came to 19.5 µL/min/mg; the “Remaining Percentage (%) after 60 min, Mouse” value came out at 55.68%. For the same compound, in series [4] (IV, 0.3 mg/kg), the AUC(0-inf) came out at 27.3 ± 0.413 ng·h/mL, the C0 was determined as 70.2 ± 2.67 ng/mL, the clearance is 183 mL/min/kg and the AUC(0-t) turned out to be 26.4 ± 0.186 ng·h/mL. In addition, in series [4] (IV, 0.3 mg/kg), the half-life was 0.43 ± 0.0371 h, the MRT inf came out at 0.528 ± 0.0255 h, the Vd was found to be 5.8 ± 0.196 L/kg and the AUC0-inf/Dose came out at 91.0 ± 1.38 kg·ng·h/mL/mg. Further, in series [4] (PO, 3 mg/kg), the AUC(0-inf) is 392 ± 109 ng·h/mL, the Cmax was 182 ± 107 ng/mL, the Tmax was 0.5 ± 0.433 h and the AUC(0-t) turned out to be 384 ± 98.9 ng·h/mL. Also, in series [4] (PO, 3 mg/kg), the half-life was 3.25 ± 1.36 h, the bioavailability is 144 ± 40.1%, the MRT inf came out at 3.14 ± 1.52 h and the AUC0-inf/Dose stood at 131 ± 36.5 kg·ng·h/mL/mg. In addition, in series [4] (PO, 3 mg/kg), the Cmax/Dose amounted to 60.7 ± 35.5 kg·ng/mL/mg.

The values above are taken from US11453689B2, “3-pyrrolidine-indole derivatives as serotonergic psychedelic agents for the treatment of CNS disorders” (Mindset Pharma Inc., priority 2020, dated 2022).
